From patent publication US9115140B2, “Thienopyrimidine derivatives, processes for the preparation thereof and therapeutic uses thereof” (SANOFI, priority 2012, dated 2015)

Assays:
[1] = molecular target: GST-Alk protein (wild-type form 1058-1620) (Homo sapiens (Human), UniProt Q9UM73); test: HTRF kinase test with GST-Alk protein, wild-type form (ATP 400 microM, enzyme 2 nM); format: biochemical; conditions: GST-Alk wild-type form 1058-1620, ATP 400 microM
[2] = molecular target: GST-Alk protein (mutant L1196M 1058-1620) (Homo sapiens (Human), UniProt Q9UM73, L1196M); test: HTRF kinase test with GST-Alk protein, mutant L1196M (ATP 200 microM, enzyme 1 nM); format: biochemical; conditions: GST-Alk mutant L1196M 1058-1620, ATP 200 microM
Chain of GST-Alk protein (mutant L1196M 1058-1620) (Q9UM73 1058-1620 L1196M): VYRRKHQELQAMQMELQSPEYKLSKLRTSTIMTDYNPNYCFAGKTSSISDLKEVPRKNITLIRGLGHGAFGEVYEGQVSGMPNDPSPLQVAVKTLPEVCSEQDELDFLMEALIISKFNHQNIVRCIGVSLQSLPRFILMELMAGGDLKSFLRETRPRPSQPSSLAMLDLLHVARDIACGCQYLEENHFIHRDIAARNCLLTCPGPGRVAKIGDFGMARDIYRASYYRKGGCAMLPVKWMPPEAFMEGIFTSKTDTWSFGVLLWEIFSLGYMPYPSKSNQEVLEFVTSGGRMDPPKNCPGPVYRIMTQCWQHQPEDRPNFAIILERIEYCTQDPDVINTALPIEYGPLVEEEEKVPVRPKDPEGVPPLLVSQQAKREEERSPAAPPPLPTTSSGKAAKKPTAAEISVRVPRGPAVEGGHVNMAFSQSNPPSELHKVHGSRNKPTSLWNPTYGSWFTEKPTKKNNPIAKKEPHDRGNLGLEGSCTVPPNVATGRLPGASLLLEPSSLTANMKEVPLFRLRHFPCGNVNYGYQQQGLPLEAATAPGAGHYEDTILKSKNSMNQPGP

Chain of GST-Alk protein (wild-type form 1058-1620) (Q9UM73 1058-1620): as the sequence (Q9UM73 1058-1620 L1196M) above, with M139L counted along it

COc1nc(C)ccc1-c1c(CO)sc2cnc(Nc3cc(C)c(N4CCN(C)CC4)cc3OC(C)C)nc12 [Compound I-191, [7-(2-Methoxy-6-methylpyridin-3-yl)-2-{[5-methyl-4-(4-methylpiperazin-1-yl)-2-(propan-2-yloxy)phenyl]amino}thieno[3,2-d]pyrimidin-6-yl]methanol]
IC50 [1]: 12 nM
IC50 [2]: 14 nM
